Converted amounts (≈) assume the structure as drawn.
Assays:
[1] = Solubility measurement in aqueous Tris-HCl buffer by UV spectrophotometry; format: physicochemical; settings: aqueous 10 mmol Tris-HCl buffer (pH 7.0)
Text: The polyene region of nystatin is extremely non-polar, which is presumed to promote hydrophobic interactions with sterols within the fungal cell membrane, and orients the polyol component of the molecule toward the internal aqueous channel. However, this low polarity also leads to significant difficulties in administration during human therapy. To investigate the effect of the additional N-acetyl-glucosamine moiety, the present inventors tested the solubility of the purified NPP as well as the nystatin A1 as a reference in an aqueous buffer solution of 10 mmol Tris-HCl (pH 7.0) using spectrophotometric methods.
Particularly, stock solutions of nystatin A1 (Sigma, N6261) standard (1.2 mg/ml) and the purified NPP (12 mg/ml) were prepared in methanol. A 100 μl portion of each stock was freeze-dried under vacuum for 24 h. Either 50 μl (nystatin A1) or 2 μl (NPP) of aqueous 10 mmol Tris-HCl buffer (pH 7.0) was added to the dry polyenes, and the solution was saturated by extensive (>15 min) vortexing. After centrifugation, polyene concentrations in the solution were determined by measuring UV absorbance spectra on SHIMADZU UV-1601 UV/Vis spectrophotometer after appropriate dilution. Specifically, the characteristic tetraene UV peak at 306 nm was used for quantification with experimentally determined extinction coefficients (J. Med. Chem. 49:2431-2439, 2006).

[2] = test system: Candida albicans ATCC 10231; assay: Antifungal activity analysis (growth inhibition in microtiter plates); format: cell-based; settings: Table 5
Experimental: The test organism used for the polyene macrolide bioactivity assays was Candida albicans ATCC 10231, which was grown in 120 μl of YM medium without NaCl (with an inoculum of 1,000 CFU per well) and 30 μl of diluted polyene macrolide samples. The antibiotics were diluted in methanol in series to ensure that concentrations resulting in no inhibition to complete inhibition of the growth of the test organism were used. The test organism cultures with diluted antibiotics were then incubated in 96-well microtiter plates at 30° C. without shaking. After 12, 14, and 16 h, growth was measured based on the optical density at 492 nm using a TECAN Infinite F50 microtiter plate reader. The optical density was plotted against the antibiotic concentration, and the MIC at which 50% of isolates are inhibited (MIC50) was estimated from the regression curve at 50% growth inhibition.

[3] = test system: erythrocytes in defibrinated horse blood; assay: In vitro measurement of hemolytic activity; format: cell-based; settings: 37° C., 30 min
Experimental: The hemolytic assay for the polyene macrolides was performed by monitoring the ability of the macrolides to cause lysis of erythrocytes in defibrinated horse blood (Gene. 111:61-68, 1992). Samples (0.1 ml) with different polyene macrolide concentrations (10 to 500 μg/ml in DMSO) were prepared from stock solutions of the purified polyenes (5 mg/ml in DMSO). The diluted samples were mixed with 0.9 ml horse blood-phosphate-buffered saline (PBS), which consisted of PBS buffer containing 2.5% defibrinated horse blood (KisanBiotech, Korea), and incubated in a water bath at 37° C. Samples were collected at 30 min, centrifuged at 5,000 rpm for 5 min, and the OD540 was measured. One hundred percent hemolysis was defined as the OD540 value obtained from a suspension of 2.5% horse blood in distilled water, and 0.9 ml horse blood-PBS with the addition of 0.1 ml DMSO was used as a blank. Each experiment was performed in triplicate, and samples containing nystatin were used as standards.

**Q.** With `C[C@@H]1[C@H](O)[C@@H](C)/C=C/C=C/CC/C=C/C=C/C=C/C=C/C(O[C@H]2O[C@H](C)[C@@H](O)[C@H](N)[C@@H]2O)CC2O[C@](O)(CC(O)C(O)CCC(O)CC(O)CC(O)CC(=O)O[C@H]1C)CC(O)C2C(=O)O` (some centres unmarked) [nystatin, nystatin A1] as the compound, how does the “solubility” value ([1]; Table 5) read?
**A.** 0.11 ± 0.03 mg/mL (≈ 119 µM)

**Q.** What about the solubility [1] of the same compound?
**A.** 0.11 mg/mL (≈ 119 µM)

**Q.** What about the “Antifungal activity (IC50, μg/ml)” value [2] of the same compound?
**A.** 0.43 ± 0.02 µg/mL

**Q.** What about the HC50 ([3]; 2.5% defibrinated horse blood in PBS) of the same compound?
**A.** 33 µg/mL

**Q.** And the “Hemolytic activity (HC50, μg/ml)” value ([3]; Table 5, horse blood)?
**A.** 33 ± 0.54 µg/mL

Source: patent publication US9605015B2, “Polyene compound, method for preparing the same, and antifungal drug comprising novel polyene compound as active ingredient” (INHA-INDUSTRY PARTNERSHIP INSTITUTE, priority 2011, dated 2017)
